Where “and” joins values, the source holds several entries; their conditions need not be identical. Identical values can stand only once. Inconclusive results and toxic doses are left out. Rule for the calls: active = survival T/C of 150% or more; inactive = T/C below 125% in these data.
Test system: P388 leukemia ip, CD2F1 mice, survival T/C
Assay: NCI In Vivo Anticancer Drug Screen. Data for tumor model P388 Leukemia (intraperitoneal) in CD2F1 (CDF1) mice
Conditions: endpoint: median survival time, higher = longer survival
Outline: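 Mice carrying the transplanted tumor received test compound or vehicle. Survival was recorded in each group, and the value is the treated-group measurement divided by that of the vehicle-treated control group.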

[1] = dose: 50.0 mg/kg/injection, schedule: Q01DX009 (ip), vehicle: saline with Tween-80
[2] = dose: 100.0 mg/kg/injection, schedule: Q01DX009 (ip), vehicle: saline with Tween-80
[3] = dose: 12.5 mg/kg/injection, schedule: Q01DX005 (ip), vehicle: Klucel (hydroxypropylcellulose) (HPC)
[4] = dose: 25.0 mg/kg/injection, schedule: Q01DX005 (ip), vehicle: Klucel (hydroxypropylcellulose) (HPC)
[5] = dose: 400.0 mg/kg/injection, schedule: Q01DX001 (ip), vehicle: saline
[6] = dose: 200.0 mg/kg/injection, schedule: Q01DX009 (ip), vehicle: saline with Tween-80
[7] = dose: 50.0 mg/kg/injection, schedule: Q01DX009 (ip), vehicle: saline
[8] = dose: 100.0 mg/kg/injection, schedule: Q01DX009 (ip), vehicle: saline
[9] = dose: 50.0 mg/kg/injection, schedule: Q01DX005 (ip), vehicle: saline
[10] = dose: 100.0 mg/kg/injection, schedule: Q01DX005 (ip), vehicle: saline
[11] = dose: 50.0 mg/kg/injection, schedule: Q04DX002 (ip), vehicle: Klucel (hydroxypropylcellulose) (HPC)
[12] = dose: 100.0 mg/kg/injection, schedule: Q04DX002 (ip), vehicle: Klucel (hydroxypropylcellulose) (HPC)
[13] = dose: 100.0 mg/kg/injection, schedule: Q04DX003 (ip), vehicle: saline
[14] = dose: 200.0 mg/kg/injection, schedule: Q04DX002 (ip), vehicle: Klucel (hydroxypropylcellulose) (HPC)
[15] = dose: 200.0 mg/kg/injection, schedule: Q04DX003 (ip), vehicle: saline
[16] = dose: 400.0 mg/kg/injection, schedule: Q04DX003 (ip), vehicle: saline
[17] = dose: 50.0 mg/kg/injection, schedule: Q01DX005 (ip), vehicle: Klucel (hydroxypropylcellulose) (HPC)
[18] = dose: 100.0 mg/kg/injection, schedule: Q01DX005 (ip), vehicle: Klucel (hydroxypropylcellulose) (HPC)
[19] = dose: 50.0 mg/kg/injection, schedule: Q01DX005 (ip), vehicle: saline with Tween-80
[20] = dose: 100.0 mg/kg/injection, schedule: Q01DX005 (ip), vehicle: saline with Tween-80
[21] = dose: 200.0 mg/kg/injection, schedule: Q01DX005 (ip), vehicle: saline with Tween-80
[22] = dose: 100.0 mg/kg/injection, schedule: Q01DX001 (ip), vehicle: saline with Tween-80
[23] = dose: 200.0 mg/kg/injection, schedule: Q01DX001 (ip), vehicle: saline with Tween-80
[24] = dose: 400.0 mg/kg/injection, schedule: Q01DX001 (ip), vehicle: saline with Tween-80

Measured: T/C

Clc1ccc(OCC(Cn2ccnc2)c2ccc(Cl)cc2)cc1 (stereo not drawn)
inactive: [1] 100 % of control | [2] 100 % of control

CN(C)c1ccc(C(=C2C=CC(=Nc3ccccc3)c3ccccc32)c2ccc(N(C)C)cc2)cc1
inactive: dose: 3.12 mg/kg/injection, schedule: Q01DX005 (ip), vehicle: Klucel (hydroxypropylcellulose) (HPC) 100 % of control and 101 % of control | dose: 6.25 mg/kg/injection, schedule: Q01DX005 (ip), vehicle: Klucel (hydroxypropylcellulose) (HPC) 100 % of control and 104 % of control and 112 % of control | [3] 111 % of control and 114 % of control and 120 % of control | [4] 115 % of control and 118 % of control

O=[N+]([O-])c1ccc(COc2ccccc2)cc1
inactive: dose: 100.0 mg/kg/injection, schedule: Q01DX001 (ip), vehicle: saline 104 % of control | dose: 200.0 mg/kg/injection, schedule: Q01DX001 (ip), vehicle: saline 113 % of control | [5] 124 % of control

O=C(NC(=NC(=Nc1ccc([N+](=O)[O-])cc1)c1ccccc1)c1ccccc1)c1ccccc1
inactive: [1] 93 % of control | [2] 99 % of control | [6] 90 % of control

NNC(=O)c1cccc2ccccc12
inactive: dose: 3.12 mg/kg/injection, schedule: Q01DX005 (ip), vehicle: saline 101 % of control | dose: 6.25 mg/kg/injection, schedule: Q01DX005 (ip), vehicle: saline 104 % of control | dose: 12.5 mg/kg/injection, schedule: Q01DX005 (ip), vehicle: saline 98 % of control

C[As+](C)(C)CC(=O)O
inactive: [7] 99 % of control | [8] 99 % of control | dose: 200.0 mg/kg/injection, schedule: Q01DX009 (ip), vehicle: saline 101 % of control

O=C(Nc1ccccc1)/C(N=Nc1cc(S(=O)(=O)O)ccc1Cl)=N/Nc1cc(S(=O)(=O)O)ccc1Cl
inactive: [1] 98 % of control | [2] 96 % of control | [6] 86 % of control

N=C1N=Nc2nc(C3(c4nc5n(c4O)C(=N)N=N5)Cc4ccccc4C3=O)c(O)n21 (stereo not drawn)
inactive: dose: 60.0 mg/kg/injection, schedule: Q01DX005 (ip), vehicle: saline 96 % of control | dose: 120.0 mg/kg/injection, schedule: Q01DX005 (ip), vehicle: saline 103 % of control | dose: 240.0 mg/kg/injection, schedule: Q01DX005 (ip), vehicle: saline 108 % of control

C=C1C(C(=O)OC)=NNc2c(C(N)=O)ncn21
inactive: dose: 25.0 mg/kg/injection, schedule: Q01DX001 (ip), vehicle: saline 101 % of control | dose: 50.0 mg/kg/injection, schedule: Q01DX001 (ip), vehicle: saline 102 % of control | dose: 100.0 mg/kg/injection, schedule: Q01DX001 (ip), vehicle: Klucel (hydroxypropylcellulose) (HPC) 98 % of control | dose: 200.0 mg/kg/injection, schedule: Q01DX001 (ip), vehicle: Klucel (hydroxypropylcellulose) (HPC) 105 % of control | [5] 100 % of control

COc1ccc(CC(=O)Cc2ccc(OC)c(OC)c2)cc1OC
inactive: [1] 101 % of control | [2] 111 % of control | [6] 95 % of control | dose: 400.0 mg/kg/injection, schedule: Q01DX009 (ip), vehicle: saline with Tween-80 99 % of control | dose: 600.0 mg/kg/injection, schedule: Q01DX009 (ip), vehicle: saline with Tween-80 87 % of control

[CH3][Sn]([CH3])([N]=C=S)[N]=C=S.c1ccc(-c2nnc(-c3ccccn3)nc2-c2ccccc2)cc1
inactive: dose: 60.0 mg/kg/injection, schedule: Q01DX005 (ip), vehicle: Klucel (hydroxypropylcellulose) (HPC) 100 % of control | dose: 120.0 mg/kg/injection, schedule: Q01DX005 (ip), vehicle: Klucel (hydroxypropylcellulose) (HPC) 104 % of control

CCN(CC)Cc1c(O)ccc(C(C)=O)c1O
inactive: [9] 89 % of control | [10] 100 % of control

CS(C)(=O)=Nc1ccc(I)cc1
inactive: [11] 105 % of control | [12] 102 % of control and 104 % of control and 105 % of control | [13] 98 % of control | [14] 101 % of control and 113 % of control and 119 % of control | [15] 100 % of control | dose: 400.0 mg/kg/injection, schedule: Q04DX002 (ip), vehicle: Klucel (hydroxypropylcellulose) (HPC) 101 % of control and 105 % of control and 120 % of control | [16] 94 % of control

CCOC(=O)C1=C(N)OC(c2ccccc2)=C(C#N)C1c1ccccc1Cl (stereo not drawn)
inactive: [17] 101 % of control | [18] 113 % of control | dose: 200.0 mg/kg/injection, schedule: Q01DX005 (ip), vehicle: Klucel (hydroxypropylcellulose) (HPC) 97 % of control

NNC(=O)c1oc2ccccc2c1CN(CCO)CCO
inactive: [19] 102 % of control | [20] 98 % of control | [21] 107 % of control

COC(=O)c1ccc(C)c(N(CCO)CCO)c1
inactive: [19] 104 % of control | [20] 104 % of control | [21] 104 % of control

CC1CCCC(C)N1Cc1ccccc1 (stereo not drawn)
inactive: dose: 25.0 mg/kg/injection, schedule: Q01DX005 (ip), vehicle: saline with Tween-80 93 % of control | [19] 93 % of control

CC(=O)OC1=NC(C)c2c1cc(OC(C)=O)nc2OC(C)=O (stereo not drawn)
inactive: dose: 50.0 mg/kg/injection, schedule: Q01DX009 (ip), vehicle: Klucel (hydroxypropylcellulose) (HPC) 104 % of control | dose: 100.0 mg/kg/injection, schedule: Q01DX009 (ip), vehicle: Klucel (hydroxypropylcellulose) (HPC) 102 % of control | dose: 200.0 mg/kg/injection, schedule: Q01DX009 (ip), vehicle: Klucel (hydroxypropylcellulose) (HPC) 102 % of control

COCC(=O)c1ccc(C#N)cc1
inactive: [13] 100 % of control | [15] 100 % of control | [16] 100 % of control

CSCCC(N)[P+](=O)O (stereo not drawn)
inactive: [9] 99 % of control | [10] 95 % of control | dose: 200.0 mg/kg/injection, schedule: Q01DX005 (ip), vehicle: saline 99 % of control

O=C[c-]1[c-][c-][c-][c-]1.[Fe+2].[c-]1[c-][c-][cH-][c-]1
inactive: dose: 6.25 mg/kg/injection, schedule: Q01DX009 (ip), vehicle: saline with Tween-80 106 % of control | dose: 12.5 mg/kg/injection, schedule: Q01DX009 (ip), vehicle: saline with Tween-80 95 % of control | dose: 25.0 mg/kg/injection, schedule: Q01DX009 (ip), vehicle: saline with Tween-80 97 % of control | [1] 99 % of control

Nc1ccc(S(=O)(=O)Nc2cccc3[nH]c(=O)oc23)cc1
inactive: [11] 101 % of control | [12] 99 % of control | [14] 100 % of control

CS(=O)(=O)NC(=O)NC(=S)c1ccc(Br)cc1
inactive: [22] 103 % of control | [23] 101 % of control | [24] 107 % of control

CCCCCCCCCCCCCCCCN1CCSCC1
inactive: dose: 12.5 mg/kg/injection, schedule: Q01DX009 (ip), vehicle: saline 91 % of control | dose: 25.0 mg/kg/injection, schedule: Q01DX009 (ip), vehicle: saline 97 % of control | [7] 98 % of control and 100 % of control | [8] 92 % of control

Cc1c[nH]c2nc(C)n(-c3ccc(Cl)cc3)c(=N)c12
inactive: [3] 98 % of control | [4] 104 % of control | [17] 103 % of control

COC(=O)C1(CC(=O)c2ccc(Cl)c(Cl)c2)NC(=S)NC(=O)C1C#N (stereo not drawn)
inactive: dose: 60.0 mg/kg/injection, schedule: Q01DX005 (ip), vehicle: saline with Tween-80 106 % of control | dose: 120.0 mg/kg/injection, schedule: Q01DX005 (ip), vehicle: saline with Tween-80 97 % of control | dose: 240.0 mg/kg/injection, schedule: Q01DX005 (ip), vehicle: saline with Tween-80 96 % of control

O=C1C(CCl)(CCl)CCC1(CCl)CCl
inactive: [19] 100 % of control | [20] 105 % of control | [21] 94 % of control

CC1CCC(C(C)C)C(NC(=O)c2cc[n+](C)cc2)C1 (stereo not drawn)
inactive: [17] 100 % of control | [18] 108 % of control

Cc1nn(-c2ccccc2)c(=O)n2c(-n3c(C)nn(-c4ccccc4)c3=O)nnc12
inactive: [22] 102 % of control | [23] 105 % of control | [24] 99 % of control

— PubChem BioAssay AID330 (DTP/NCI, 2004)
